Bridge positions count the residues as written; N and C are the ends. Peptide text beside a SMILES is read from it. * marks the point of attachment. Biotin = O=C1N[C@H]2[C@H](CS[C@H]2CCCCC(=O)*)N1
Assays:
human RNF43 = target: T1, human RNF43 (Homo sapiens, UniProt Q68DV7); assay: SPR binding of DCPs to immobilized human RNF43 ECD; details: for improvement in affinity for RNF43 over the previous generation: SPR KD, each round of affinity maturation versus its parent DCP
T1 construct: ECD of the human RNF43 protein was incubated with EZ-link-NHS-PEG4-biotin; biotin (chemical label, NHS-PEG4-biotin on amines, 1-2 per protein)
T1 sequence (Q68DV7 24-197 limits assumed): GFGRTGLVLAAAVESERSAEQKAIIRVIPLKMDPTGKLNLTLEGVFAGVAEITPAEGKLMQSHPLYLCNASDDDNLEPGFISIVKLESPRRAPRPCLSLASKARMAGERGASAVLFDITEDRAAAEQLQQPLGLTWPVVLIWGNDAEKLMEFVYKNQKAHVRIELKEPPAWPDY
Protocol: ECD of the human RNF43 protein was incubated with EZ-link-NHS-PEG4-biotin (Thermo Fisher, 1:1, 50 μM) for 1 h at room temperature (RT). The reaction was quenched by addition of 10 mM Glycine, followed by dialysis into phosphate buffered saline (PBS) overnight at 4 °C. Finally, the biotinylated protein was analyzed using LC-MS to ensure that each protein is labeled with 1–2 biotin molecules. ,
(§1) SPR measurement was carried out using a Biacore S200 (Cytiva) instrument, with PBS-T (PBS with 0.05% Tween 20, pH 7.4) as the buffer. Biotinylated protein was captured on three sensor channels of Series S SA Sensors (Cytiva). The sensors were then blocked with 0.1 mg/mL biotin. DCPs were injected onto the sensor in a 3× concentration series. The data were double-referenced by subtracting the signal from a sensor channel coated with biotin only and the signal from a buffer injection. For data analysis, binding data were fitted using the manufacturer’s software. ,

mouse RNF43 = target: T2, mouse RNF43 (Mus musculus, UniProt Q5NCP0); assay: SPR binding of DCPs to mouse RNF43; details: independently performed at least three times
T2 sequence (Q5NCP0 24-197 limits assumed): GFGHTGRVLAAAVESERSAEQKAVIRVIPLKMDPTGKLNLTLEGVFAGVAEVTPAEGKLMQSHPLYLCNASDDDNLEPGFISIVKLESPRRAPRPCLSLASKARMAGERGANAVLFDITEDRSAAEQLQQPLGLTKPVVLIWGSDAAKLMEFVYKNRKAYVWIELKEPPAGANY
Protocol: as §1

deglycosylated RNF43 = target: T3, deglycosylated RNF43 (Homo sapiens, UniProt Q68DV7); assay: SPR binding to deglycosylated RNF43; details: biotinylated RNF43 treated with Deglycosylation Mix II, fitted data of representative sensorgram
T3 construct: ECD of the human RNF43 protein was incubated with EZ-link-NHS-PEG4-biotin; biotin (chemical label, NHS-PEG4-biotin)
T3 sequence (Q68DV7 24-197): T1 sequence (Q68DV7 24-197 limits assumed)
Protocol: as §1
Protein deglycosylation was performed on a small scale using Deglycosylation Mix II (P6044, NEB), according to the manufacturer’s instructions. Briefly, the biotinylated RNF43 was incubated with Deglycosylation Mix II for 1 h at RT. Then the reaction mixture was transferred to 37 °C and further incubated overnight. Following incubation, the reaction mixture was analyzed by mobility shift on SDS-PAGE gels. After dialysis, the protein was then used for further applications.

ZNRF3 = assay: SPR binding to ZNRF3 (specificity); details: bio-GUR-1.6.12.2 on streptavidin sensor
Protocol: as §1

## CC[C@H](C)[C@H](NC(=O)[C@@H]1CSSC[C@H](NC(=O)[C@@H](NC(=O)[C@H](Cc2c[nH]cn2)NC(=O)[C@H](CO)NC(=O)[C@H](Cc2ccc(O)cc2)NC(=O)[C@H](CC(=O)O)NC(=O)[C@H](Cc2c[nH]cn2)NC(=O)[C@@H]2CSSC[C@H](NC(=O)[C@H](CCC(N)=O)NC(=O)[C@@H](N)CCC(=O)O)C(=O)N[C@@H]([C@@H](C)O)C(=O)N[C@@H](CO)C(=O)N[C@@H]([C@@H](C)O)C(=O)N[C@@H](CCC(N)=O)C(=O)N[C@@H](CC(=O)O)C(=O)N[C@@H](CC(C)C)C(=O)N2)C(C)C)C(=O)N[C@H]2CSSC[C@H](NC(=O)[C@H](CC(=O)O)NC(=O)[C@H](CC(C)C)NC(=O)[C@@H]3CCCN3C(=O)[C@H](Cc3c[nH]c4ccccc34)NC2=O)C(=O)N[C@@H](CCCNC(=N)N)C(=O)N[C@@H](Cc2c[nH]c3ccccc23)C(=O)N[C@@H](C)C(=O)N[C@@H](C(C)C)C(=O)N[C@@H](CCCCN)C(=O)N[C@@H](Cc2ccc(O)cc2)C(=O)N[C@@H](CCC(N)=O)C(=O)N[C@@H](Cc2c[nH]c3ccccc23)C(=O)N[C@@H](Cc2ccccc2)C(=O)N[C@@H](Cc2c[nH]c3ccccc23)C(=O)N[C@@H](CC(=O)O)C(=O)N1)C(=O)NCC(=O)O [GUR-1.6.12.2] (H-EQCTSTQDLCHDYSHVCCWPLDCRWAVKYQWFWDCIG-OH; disulfide 3-10, 17-35, 18-23)
Human RNF43; SPR, Biacore S200, biotinylated human RNF43 captured on SA sensor, DCP injected, PBS-T pH 7.4, independently performed at least three times, NB = no binding
  KD (h, nM): single-digit nanomolar
Mouse RNF43
  Kd: 2.1 ± 0.2 nM
Deglycosylated RNF43
  KD against deglycosylated RNF43: remained unchanged

## CC[C@H](C)[C@H](NC(=O)[C@@H]1CSSC[C@H](NC(=O)[C@@H](NC(=O)[C@H](Cc2c[nH]cn2)NC(=O)[C@H](CO)NC(=O)[C@H](Cc2ccc(O)cc2)NC(=O)[C@H](CC(=O)O)NC(=O)[C@H](Cc2c[nH]cn2)NC(=O)[C@@H]2CSSC[C@H](NC(=O)[C@H](CCC(N)=O)NC(=O)[C@H](CCC(=O)O)NC(=O)CCCC[C@@H]3SC[C@@H]4NC(=O)N[C@@H]43)C(=O)N[C@@H]([C@@H](C)O)C(=O)N[C@@H](CO)C(=O)N[C@@H]([C@@H](C)O)C(=O)N[C@@H](CCC(N)=O)C(=O)N[C@@H](CC(=O)O)C(=O)N[C@@H](CC(C)C)C(=O)N2)C(C)C)C(=O)N[C@H]2CSSC[C@H](NC(=O)[C@H](CC(=O)O)NC(=O)[C@H](CC(C)C)NC(=O)[C@@H]3CCCN3C(=O)[C@H](Cc3c[nH]c4ccccc34)NC2=O)C(=O)N[C@@H](CCCNC(=N)N)C(=O)N[C@@H](Cc2c[nH]c3ccccc23)C(=O)N[C@@H](C)C(=O)N[C@@H](C(C)C)C(=O)N[C@@H](CCCCN)C(=O)N[C@@H](Cc2ccc(O)cc2)C(=O)N[C@@H](CCC(N)=O)C(=O)N[C@@H](Cc2c[nH]c3ccccc23)C(=O)N[C@@H](Cc2ccccc2)C(=O)N[C@@H](Cc2c[nH]c3ccccc23)C(=O)N[C@@H](CC(=O)O)C(=O)N1)C(=O)NCC(=O)O [bio-GUR-1.6.12.2] (Biotin-EQCTSTQDLCHDYSHVCCWPLDCRWAVKYQWFWDCIG-OH; disulfide 3-10, 17-35, 18-23)
ZNRF3
  binding to ZNRF3, peptide immobilized: without binding to ZNRF3

## CC[C@H](C)[C@H](NC(=O)[C@@H]1CSSC[C@@H]2NC(=O)[C@H](CC(=O)O)NC(=O)[C@H](CC(C)C)NC(=O)[C@H](Cc3ccc(O)cc3)NC(=O)[C@H](Cc3ccc(O)cc3)NC(=O)[C@@H]3CCCN3C(=O)[C@H]([C@@H](C)CC)NC(=O)[C@@H]3CSSC[C@H](NC(=O)[C@H](CCC(=O)O)NC(=O)[C@H](CC(C)C)NC(=O)[C@@H]4CCCN4C(=O)[C@H](CCC(=O)O)NC(=O)[C@H](CSSC[C@H](NC(=O)[C@@H](N)CCC(N)=O)C(=O)N[C@@H](C(C)C)C(=O)N[C@@H](CCCCN)C(=O)N[C@@H](CCCCN)C(=O)N[C@@H](CC(=O)O)C(=O)N[C@@H](CCC(=O)O)C(=O)N[C@@H](CC(C)C)C(=O)N3)NC2=O)C(=O)N[C@@H](CCCNC(=N)N)C(=O)N[C@@H](Cc2c[nH]c3ccccc23)C(=O)N[C@@H](C)C(=O)N[C@@H](C(C)C)C(=O)N[C@@H](CCCCN)C(=O)N[C@@H](Cc2ccc(O)cc2)C(=O)N[C@@H](CCC(N)=O)C(=O)N[C@@H](Cc2c[nH]c3ccccc23)C(=O)N[C@@H](Cc2ccccc2)C(=O)N[C@@H](Cc2c[nH]c3ccccc23)C(=O)N[C@@H](CC(=O)O)C(=O)N1)C(=O)NCC(=O)O [GUR-1.6] (H-QCVKKDELCIPYYLDCCEPLECRWAVKYQWFWDCIG-OH; disulfide 2-17, 9-22, 16-34; N-terminus assumed)
Human RNF43
  improvement in affinity for RNF43 over the previous generation: 10 fold

## CC[C@H](C)[C@H](NC(=O)[C@@H]1CSSC[C@@H]2NC(=O)[C@H](CC(=O)O)NC(=O)[C@H](CC(C)C)NC(=O)[C@H](Cc3ccc(O)cc3)NC(=O)[C@H](Cc3ccc(O)cc3)NC(=O)[C@@H]3CCCN3C(=O)[C@H]([C@@H](C)CC)NC(=O)[C@@H]3CSSC[C@H](NC(=O)[C@H](CC(=O)O)NC(=O)[C@H](CC(C)C)NC(=O)[C@@H]4CCCN4C(=O)[C@H](Cc4c[nH]c5ccccc45)NC(=O)[C@H](CSSC[C@H](NC(=O)[C@@H](N)CCC(N)=O)C(=O)N[C@@H](C(C)C)C(=O)N[C@@H](CCCCN)C(=O)N[C@@H](CCCCN)C(=O)N[C@@H](CC(=O)O)C(=O)N[C@@H](CCC(=O)O)C(=O)N[C@@H](CC(C)C)C(=O)N3)NC2=O)C(=O)N[C@@H](CCCNC(=N)N)C(=O)N[C@@H](Cc2c[nH]c3ccccc23)C(=O)N[C@@H](C)C(=O)N[C@@H](C(C)C)C(=O)N[C@@H](CCCCN)C(=O)N[C@@H](Cc2ccc(O)cc2)C(=O)N[C@@H](CCC(N)=O)C(=O)N[C@@H](Cc2c[nH]c3ccccc23)C(=O)N[C@@H](Cc2ccccc2)C(=O)N[C@@H](Cc2c[nH]c3ccccc23)C(=O)N[C@@H](CC(=O)O)C(=O)N1)C(=O)NCC(=O)O [GUR-1.6.12] (H-QCVKKDELCIPYYLDCCWPLDCRWAVKYQWFWDCIG-OH; disulfide 2-17, 9-22, 16-34; N-terminus assumed)
Human RNF43
  improvement in affinity for RNF43 over the previous generation: slightly improved

Source: publication PMC12464775, “Selective and Potent Peptide Binders of RNF43 for Wnt Signaling Inhibition” (ACS Central Science, 2025)
